According to US10934283B2, “COMT inhibiting methods and compositions” (LIEBER INSTITUTE FOR BRAIN DEVELOPMENT, priority 2015, dated 2021):

Test system: not given
Assay: not given
Details: Russ, et al. 1999; cited from earlier work

SMILES | brain penetration
CCN(CC)C(=O)/C(C#N)=C/c1cc(O)c(O)c([N+](=O)[O-])c1 [entacapone] | negligible

Test system: not given
Assay: not given
Details: Nutt and Fellman 1984; cited from earlier work

SMILES | percentage of exogenously administered L-DOPA that reaches the brain [%]
N[C@@H](Cc1ccc(O)c(O)c1)C(=O)O [L-DOPA, L-dihydroxyphenylalanine] | ~1

Molecular target: T1, catechol-O-methyltransferase (COMT) (Homo sapiens, UniProt P21964)
T1 construct: M51A variant) was expressed in HEK 293F cells
T1 sequence (P21964 52-271 limits assumed): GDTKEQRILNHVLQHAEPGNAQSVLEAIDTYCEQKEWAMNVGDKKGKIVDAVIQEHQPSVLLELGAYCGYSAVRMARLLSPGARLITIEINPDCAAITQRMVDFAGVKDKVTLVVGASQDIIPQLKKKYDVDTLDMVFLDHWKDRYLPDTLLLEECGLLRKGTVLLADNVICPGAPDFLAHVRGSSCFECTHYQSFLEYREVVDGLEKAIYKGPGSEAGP
Assay: COMT inhibition assay (HTRF, production of SAH from SAM)
Assay type: biochemical
Details: table does not say MB-COMT or S-COMT
How it was run: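 Membranes from HEK293F cells expressing MB-COMT (M51A variant) incubated with 20 μM SAM and 1.5 μM dopamine plus compound (10 concentrations) for 40 min at 37 °C; S-COMT (Val158) at 0.15 ng/well used 100 μM dopamine, 15 min. SAH measured by HTRF against a standard curve; pIC50 from 4-parameter logistic fit.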

SMILES | Activity range (pIC50)
O=c1cc2n(cc1O)CCN(C1(c3ccccc3)COC1)C2 [Example 111, 7-hydroxy-2-(3-phenyloxetan-3-yl)-3,4-dihydro-1H-pyrido[1,2-a]pyrazin-8-one] | ++ (two plus signs (++) is associated with a pIC50 of from about 6 to 7)
O=c1cc2n(cc1O)CCN(c1ccccc1)C2 [Example 112, 7-hydroxy-2-phenyl-1,2,3,4-tetrahydro-8H-pyrido[1,2-a]pyrazin-8-one] | +++ (three plus signs (+++) is associated with a pIC50 of above about 7)
Cc1cccc(N2CCn3cc(O)c(=O)cc3C2)c1 [Example 113, 7-hydroxy-2-(3-methylphenyl)-1,2,3,4-tetrahydro-8H-pyrido[1,2-a]pyrazin-8-one] | ++ (two plus signs (++) is associated with a pIC50 of from about 6 to 7)
O=c1cc2n(cc1O)CCN(c1ccccc1OC(F)(F)F)C2 [Example 114, 7-hydroxy-2-[2-(trifluoromethoxy)phenyl]-1,2,3,4-tetrahydro-8H-pyrido[1,2-a]pyrazin-8-one] | ++ (two plus signs (++) is associated with a pIC50 of from about 6 to 7)
O=c1cc2n(cc1O)CCN(Cc1ccccc1)C2Cc1ccccc1 (centres unmarked) [Example 115, 1,2-dibenzyl-7-hydroxy-1,2,3,4-tetrahydro-8H-pyrido[1,2-a]pyrazin-8-one] | ++ (two plus signs (++) is associated with a pIC50 of from about 6 to 7)
O=c1cc2n(cc1O)CCN(Cc1ccccc1)C2c1ccccc1 (centres unmarked) [Example 116, 2-benzyl-7-hydroxy-1-phenyl-1,2,3,4-tetrahydro-8H-pyrido[1,2-a]pyrazin-8-one] | +++ (three plus signs (+++) is associated with a pIC50 of above about 7)
O=c1cc2n(cc1O)CCN(Cc1c(Cl)cccc1Cl)C2c1ccccc1 (centres unmarked) [Example 117, 2-(2,6-dichlorobenzyl)-7-hydroxy-1-phenyl-1,2,3,4-tetrahydro-8H-pyrido[1,2-a]pyrazin-8-one] | +++ (three plus signs (+++) is associated with a pIC50 of above about 7)
CCc1ccc(CN2CCn3cc(O)c(=O)cc3C2C(C)C)cc1 (centres unmarked) [Example 120, 2-(4-ethylbenzyl)-7-hydroxy-1-(propan-2-yl)-1,2,3,4-tetrahydro-8H-pyrido[1,2-a]pyrazin-8-one] | +++ (three plus signs (+++) is associated with a pIC50 of above about 7)
Cc1cccc(C)c1CN1CCn2cc(O)c(=O)cc2C1C (centres unmarked) [Example 121, 2-(2,6-dimethylbenzyl)-7-hydroxy-1-methyl-1,2,3,4-tetrahydro-8H-pyrido[1,2-a]pyrazin-8-one] | +++ (three plus signs (+++) is associated with a pIC50 of above about 7)
CCc1ccc(CN2CCn3cc(O)c(=O)cc3C2C)cc1 (centres unmarked) [Example 122, 2-(4-ethylbenzyl)-7-hydroxy-1-methyl-1,2,3,4-tetrahydro-8H-pyrido[1,2-a]pyrazin-8-one] | +++ (three plus signs (+++) is associated with a pIC50 of above about 7)
O=c1cc2n(cc1O)CCN(Cc1cccc3cccnc13)C2c1ccc(F)cc1 (centres unmarked) [Example 123, 1-(4-fluorophenyl)-7-hydroxy-2-(quinolin-8-ylmethyl)-1,2,3,4-tetrahydro-8H-pyrido[1,2-a]pyrazin-8-one] | +++ (three plus signs (+++) is associated with a pIC50 of above about 7)
Cc1cccc(C)c1CN1CCn2cc(O)c(=O)cc2C1c1ccc(F)cc1 (centres unmarked) [Example 124, 2-(2,6-dimethylbenzyl)-1-(4-fluorophenyl)-7-hydroxy-1,2,3,4-tetrahydro-8H-pyrido[1,2-a]pyrazin-8-one] | +++ (three plus signs (+++) is associated with a pIC50 of above about 7)
CCc1ccc(CN2CCn3cc(O)c(=O)cc3C2C2CCOCC2)cc1 (centres unmarked) [Example 125, 2-(4-ethylbenzyl)-7-hydroxy-1-(tetrahydro-2H-pyran-4-yl)-1,2,3,4-tetrahydro-8H-pyrido[1,2-a]pyrazin-8-one] | +++ (three plus signs (+++) is associated with a pIC50 of above about 7)
CCc1ccc(CN2CCn3cc(O)c(=O)cc3C2c2cccc(-c3cccnc3)c2)cc1 (centres unmarked) [Example 126, 2-(4-ethylbenzyl)-7-hydroxy-1-[3-(pyridin-3-yl)phenyl]-1,2,3,4-tetrahydro-8H-pyrido[1,2-a]pyrazin-8-one] | +++ (three plus signs (+++) is associated with a pIC50 of above about 7)
O=c1cc2n(cc1O)CC(c1ccccc1)N(Cc1ccccc1)C2 (centres unmarked) [Example 127, 2-benzyl-7-hydroxy-3-phenyl-1,2,3,4-tetrahydro-8H-pyrido[1,2-a]pyrazin-8-one] | +++ (three plus signs (+++) is associated with a pIC50 of above about 7)
O=c1cc2n(cc1O)CC(Cc1ccccc1)N(Cc1ccccc1)C2 (centres unmarked) [Example 128, 2,3-dibenzyl-7-hydroxy-1,2,3,4-tetrahydro-8H-pyrido[1,2-a]pyrazin-8-one] | ++ (two plus signs (++) is associated with a pIC50 of from about 6 to 7)
O=c1cc2n(cc1O)CC(Cc1ccccc1)N(Cc1c(Cl)cccc1Cl)C2 (centres unmarked) [Example 129, 3-benzyl-2-(2,6-dichlorobenzyl)-7-hydroxy-1,2,3,4-tetrahydro-8H-pyrido[1,2-a]pyrazin-8-one] | ++ (two plus signs (++) is associated with a pIC50 of from about 6 to 7)
CC1Cn2cc(O)c(=O)cc2CN1Cc1ccc(OC(F)(F)F)cc1 (centres unmarked) [Example 130, 7-hydroxy-3-methyl-2-[4-(trifluoromethoxy)benzyl]-1,2,3,4-tetrahydro-8H-pyrido[1,2-a]pyrazin-8-one] | ++ (two plus signs (++) is associated with a pIC50 of from about 6 to 7)
CC1Cn2cc(O)c(=O)cc2CN1Cc1ccccc1 (centres unmarked) [Example 131, 2-benzyl-7-hydroxy-3-methyl-1,2,3,4-tetrahydro-8H-pyrido[1,2-a]pyrazin-8-one] | ++ (two plus signs (++) is associated with a pIC50 of from about 6 to 7)
O=c1cc2n(cc1O)CC(CCc1ccccc1)N(Cc1ccccc1)C2 (centres unmarked) [Example 132, 2-benzyl-7-hydroxy-3-(2-phenylethyl)-1,2,3,4-tetrahydro-8H-pyrido[1,2-a]pyrazin-8-one] | +++ (three plus signs (+++) is associated with a pIC50 of above about 7)
O=c1c(O)cn2c(c1Cl)CN(Cc1c(F)cccc1Cl)CC2 [Example 133, 9-chloro-2-(2-chloro-6-fluorobenzyl)-7-hydroxy-1,2,3,4-tetrahydro-8H-pyrido[1,2-a]pyrazin-8-one] | +++ (three plus signs (+++) is associated with a pIC50 of above about 7)
O=c1cc2n(c(F)c1O)CCN(Cc1ccccc1Cl)C2 [Example 134, 6-fluoro-7-hydroxy-2-[[2-chlorophenyl]methyl]-3,4-dihydro-1H-pyrido[1,2-a]pyrazin-8-one] | ++ (two plus signs (++) is associated with a pIC50 of from about 6 to 7)
O=c1cc2n(c(F)c1O)CCN(Cc1ccc(OC(F)(F)F)cc1)C2 [Example 135, 2-[(4-(trifluoromethoxy)phenyl)methyl]-6-fluoro-7-hydroxy-3,4-dihydro-1H-pyrido[1,2-a]pyrazin-8-one] | ++ (two plus signs (++) is associated with a pIC50 of from about 6 to 7)
CCc1ccc(CN2CCn3cc(O)c(=O)c(Cl)c3C2)cc1 [Example 136, 9-chloro-2-(4-ethylbenzyl)-7-hydroxy-1,2,3,4-tetrahydro-8H-pyrido[1,2-a]pyrazin-8-one] | +++ (three plus signs (+++) is associated with a pIC50 of above about 7)
O=c1c(O)cn2c(c1Cl)CN(Cc1ccccc1Cl)CC2 [Example 137, 9-chloro-2-[(2-chlorophenyl)methyl]-7-hydroxy-3,4-dihydro-1H-pyrido[1,2-a]pyrazin-8-one] | +++ (three plus signs (+++) is associated with a pIC50 of above about 7)
CCc1ccc(CN2CCn3cc(O)c(=O)c(Br)c3C2)cc1 [Example 138, 9-bromo-2-(4-ethylbenzyl)-7-hydroxy-1,2,3,4-tetrahydro-8H-pyrido[1,2-a]pyrazin-8-one] | +++ (three plus signs (+++) is associated with a pIC50 of above about 7)
O=c1c(O)cn2c(c1Br)CN(Cc1ccccc1Cl)CC2 [Example 139, 9-bromo-2-[(2-chlorophenyl)methyl]-7-hydroxy-3,4-dihydro-1H-pyrido[1,2-a]pyrazin-8-one] | +++ (three plus signs (+++) is associated with a pIC50 of above about 7)
O=c1c(O)cn2c(c1I)CN(Cc1ccccc1Cl)CC2 [Example 140, 2-[(2-chlorophenyl)methyl]-7-hydroxy-9-iodo-3,4-dihydro-1H-pyrido[1,2-a]pyrazin-8-one] | + (a single plus (+) is associated with a pIC50 of from about 4.5 to 6)
CCc1ccc(CN2CCn3cc(O)c(=O)c(C4CC4)c3C2)cc1 [Example 141, 9-cyclopropyl-2-(4-ethylbenzyl)-7-hydroxy-1,2,3,4-tetrahydro-8H-pyrido[1,2-a]pyrazin-8-one] | ++ (two plus signs (++) is associated with a pIC50 of from about 6 to 7)
O=c1c(O)cn2c(c1C1CC1)CN(Cc1ccccc1Cl)CC2 [Example 142, 2-[(2-chlorophenyl)methyl]-9-cyclopropyl-7-hydroxy-3,4-dihydro-1H-pyrido[1,2-a]pyrazin-8-one] | +++ (three plus signs (+++) is associated with a pIC50 of above about 7)
